The test system of one data set is A549. Briefly: Antiproliferative activity against human A549 cells assessed as inhibition of cell growth incubated for 72 hrs by CCK8 assay. Type of data set: functional, cell-based. The following applies: A549, 72 h.
A further data set concerns BGC-823. Briefly: Antiproliferative activity against human BGC-823 cells assessed as inhibition of cell growth incubated for 72 hrs by CCK8 assay. Type of data set: functional, cell-based. The following applies: BGC-823, 72 h. For orientation: Tetrazolium dyes change colour on reduction, which living cells bring about.
A short description of data set [1]: Antiproliferative activity against human MCF-10A cells assessed as inhibition of cell growth incubated for 72 hrs by CCK8 assay. Type of data set: toxicity, cell-based.
For data set [2], the system named is MDA-MB-231. Briefly: Antiproliferative activity against human MDA-MB-231 cells assessed as inhibition of cell growth incubated for 72 hrs by CCK8 assay. It counts as functional, cell-based. The following applies: MDA-MB-231, 72 h.
Another data set deals with MCF7. Briefly: Antiproliferative activity against human MCF7 cells assessed as inhibition of cell growth incubated for 72 hrs by CCK8 assay. Type of data set: functional, cell-based. The following applies: MCF7, 72 h.
Data set [3] is described as follows: Selectivity index, ratio of IC50 for antiproliferative activity against human MCF-10A cells to IC50 for antiproliferative activity against human MDA-MB-231 cells. As to conditions: MCF-10A cells and MDA-MB-231 cells, read-out: Ratio IC50. It counts as toxicity, cell-based.
The subject of another data set is PC-3. Briefly: Antiproliferative activity against human PC-3 cells assessed as inhibition of cell growth incubated for 72 hrs by CCK8 assay. Type of data set: functional, cell-based. The following applies: PC-3, 72 h.
Data set [4] has as its system MDA-MB-231. Briefly: Antiproliferative activity against human MDA-MB-231 cells assessed as inhibition of cell growth incubated for 72 hrs by SRB assay. It counts as functional, cell-based. As to conditions: MDA-MB-231, 72 h. (In general: The SRB assay estimates cell density from bound dye.)

Where only a bound is given, the exact number is not on record here.

Experimental findings from ChEMBL document CHEMBL5233281, “Design, synthesis and biological evaluation of novel 1,3,4,9-tetrahydropyrano[3,4-b]indoles as potential treatment of triple negative breast cancer by suppressing PI3K/AKT/mTOR pathway” (Bioorg Med Chem, 2021) are described below.

For orientation: IC50 means the concentration needed to halve the response being measured. Turning to `COc1ccc(C2OCCc3c2[nH]c2ccccc32)cc1OC` (stereo unspecified), the IC50 is more than 20 µM in the data set on A549; more than 20 µM in the data set on BGC-823; 17.8 µM with MDA-MB-231 [2]; more than 20 µM with MCF7; 18.1 µM in the data set on PC-3. In addition, the IC50 at 72 h in data set [1] was 40.4 µM. Besides, in data set [3], the selectivity ratio stood at 2.27.
As for `COc1ccc(C2OCCc3c2[nH]c2ccc(Br)cc32)cc1` (stereo unspecified), the IC50 is more than 20 µM with A549; more than 20 µM with BGC-823; 16.5 µM with MDA-MB-231 [2]; more than 20 µM in the data set on MCF7; more than 20 µM with PC-3. Besides, in data set [1], the IC50 at 72 h came to 45.1 µM. Also, the selectivity ratio in data set [3] was 2.42.
Turning to `COc1ccccc1C1OCCc2c1[nH]c1ccccc21` (stereo unspecified), the concentration for half-maximal inhibition (IC50) with A549, in the data set on BGC-823, in the data set on MDA-MB-231 [2], in the data set on MCF7 and in the data set on PC-3 was more than 20 µM each time.
Regarding `Clc1ccc(C2OCCc3c2[nH]c2ccccc32)cc1` (stereo unspecified), the IC50 in the data set with A549 was 17.6 µM; with BGC-823 it was 12.3 µM; in the data set on MDA-MB-231 [2] it was 13.1 µM; in the data set on MCF7, 15.8 µM; in the data set with PC-3 it was 12.8 µM. Further, in data set [1], the IC50 at 72 h is 35.4 µM.
For `COc1ccc(C2OCCc3c2[nH]c2ccc(OC)cc32)cc1` (stereo unspecified), the IC50 with A549 is more than 20 µM; in the data set with BGC-823 it was more than 20 µM; with MDA-MB-231 [2] it was 16.9 µM; with MCF7, more than 20 µM; in the data set on PC-3, more than 20 µM. For the same compound, in data set [1], the half-maximal inhibitory concentration (IC50) at 72 h came out at 51.9 µM. For the same compound, the selectivity ratio in data set [3] turned out to be 3.07.
On to `c1ccc(C2OCCc3c2[nH]c2ccccc32)cc1` (stereo unspecified), for which the IC50 in the data set with A549, in the data set with BGC-823, in the data set with MDA-MB-231 [2], with MCF7 and in the data set with PC-3 was more than 20 µM each time.
On to `Cc1ccc(C2OCCc3c2[nH]c2ccccc32)cc1` (stereo unspecified), for which the IC50 is more than 20 µM in the data set with A549; more than 20 µM in the data set with BGC-823; more than 20 µM in the data set on MDA-MB-231 [2]; more than 20 µM in the data set on MCF7; 18.2 µM with PC-3.
With `c1ccc2cc(C3OCCc4c3[nH]c3ccccc43)ccc2c1` (stereo unspecified), the half-inhibitory concentration (IC50) was more than 20 µM in the data set with A549; 17.8 µM with BGC-823; more than 20 µM with MDA-MB-231 [2]; more than 20 µM in the data set with MCF7; more than 20 µM in the data set on PC-3.
On to `COc1cccc(C2OCCc3c2[nH]c2ccccc32)c1` (stereo unspecified), for which the IC50 is more than 20 µM in the data set with A549; more than 20 µM in the data set on BGC-823; 15.3 µM in the data set with MDA-MB-231 [2]; 18 µM with MCF7; more than 20 µM in the data set on PC-3. In addition, in data set [1], the concentration for half-maximal inhibition (IC50) at 72 h worked out at 40.8 µM. The selectivity ratio in data set [3] came to 2.67.
With `Fc1ccc(C2OCCc3c2[nH]c2ccccc32)cc1` (stereo unspecified), the IC50 in the data set on A549 worked out at 19.4 µM; with BGC-823 it was 14.7 µM; in the data set with MDA-MB-231 [2], 6.8 µM; in the data set with MCF7, 7.05 µM; with PC-3 it was 6.21 µM. Also, in data set [1], the half-inhibitory concentration (IC50) at 72 h came out at 32 µM. The selectivity ratio in data set [3] was 6.8.
On to `c1ccc(-c2ccc(C3OCCc4c3[nH]c3ccccc43)cc2)cc1` (stereo unspecified), for which the IC50 with A549, in the data set on BGC-823, with MDA-MB-231 [2], in the data set with MCF7 and with PC-3 was more than 20 µM in each case.
For `Cc1cccc(C2OCCc3c2[nH]c2ccccc32)c1` (stereo unspecified), the IC50 in the data set on A549, with BGC-823, in the data set with MDA-MB-231 [2], in the data set on MCF7 and with PC-3 was more than 20 µM throughout.
As for `COc1ccc2cc(C3OCCc4c3n(Cc3ccccc3)c3ccccc43)ccc2c1` (stereo unspecified), the IC50 came out at 19.9 µM in the data set with A549; 19.7 µM with BGC-823; 15.8 µM with MDA-MB-231 [2]; 16.5 µM in the data set on MCF7; 14.8 µM in the data set on PC-3. Further, the IC50 at 72 h in data set [1] is 41.4 µM. Besides, the selectivity ratio in data set [3] is 2.63.
For `CC(=O)Oc1ccc(C2OCCc3c2[nH]c2ccccc32)cc1` (stereo unspecified), the IC50 in the data set on A549 is more than 20 µM; in the data set with BGC-823, more than 20 µM; in the data set on MDA-MB-231 [2], more than 20 µM; in the data set with MCF7, 19.4 µM; in the data set with PC-3, more than 20 µM.
In the case of `COc1ccc(C2OCCc3c2[nH]c2ccccc32)c(OC)c1OC` (stereo unspecified), the IC50 is more than 20 µM in the data set with A549; more than 20 µM in the data set on BGC-823; more than 20 µM in the data set on MDA-MB-231 [2]; more than 20 µM with MCF7; 19.7 µM in the data set with PC-3.
`COc1ccc2cc(C3OCCc4c3[nH]c3ccccc43)ccc2c1` (stereo unspecified): the IC50 worked out at 15.4 µM with A549; 13.2 µM with BGC-823; 4.59 µM with MDA-MB-231 [2]; 12.2 µM in the data set on MCF7; 12.6 µM with PC-3. The IC50 at 72 h in data set [1] was determined as 21.9 µM. Moreover, in data set [3], the selectivity ratio stood at 4.77.
`COc1ccc2cc(C3OCCc4c3n(C)c3ccccc43)ccc2c1` (stereo unspecified): the IC50 in the data set on A549 worked out at 17.5 µM; in the data set on BGC-823, 18.1 µM; in the data set with MDA-MB-231 [2], 11.6 µM; with MCF7, 12.7 µM; in the data set on PC-3, 16.7 µM. Also, the IC50 at 72 h in data set [1] was 30 µM. The selectivity ratio in data set [3] worked out at 3.35.
Regarding `C[C@@H](Nc1cc(F)cc(F)c1)c1cc(C(=O)N(C)C)cc2c(=O)cc(N3CCOCC3)oc12` [AZD-8186], in the data set with MDA-MB-231 [4], the IC50 was found to be 6.99 µM.
In the case of `COc1ccc(C2OCCc3c2[nH]c2ccccc32)cc1` (stereo unspecified), the IC50 with A549 came to 18.9 µM; in the data set on BGC-823, 15.6 µM; with MDA-MB-231 [2], 10.8 µM; in the data set on MCF7, 16.6 µM; in the data set on PC-3 it was 17.8 µM. Also, in data set [1], the IC50 at 72 h stood at 35.9 µM. For the same compound, in data set [3], the selectivity ratio was 3.32.
`COc1cc(C2OCCc3c2[nH]c2ccccc32)cc(OC)c1OC` (stereo unspecified): the IC50 with A549 stood at 19 µM; in the data set on BGC-823, 18.3 µM; in the data set on MDA-MB-231 [2], 13.5 µM; with MCF7 it was 18.5 µM; in the data set on PC-3, 13.9 µM. In addition, the IC50 at 72 h in data set [1] is 46.2 µM.
